Several values for one entry are separate records, joined by “and”; a condition that tells them apart may be missing. Identical values can stand only once.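 Assay format: 96-well plates, 48-hour exposure. Abbreviation: GI50, concentration required for 50% inhibition of growth.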 Activity calls are given as the source filed them. Cut-off read from the data, not from the text of the source: active = GI50 up to about 1.1 µM and inactive = higher.
Tests used:
Experiment in all cases: NCI anticancer screen, dose series, 48 h
HCT-116 = test system: HCT-116
IGROV-1 = test system: IGROV-1
KM12 = test system: KM12
UACC-62 = test system: UACC-62
RXF 393 = test system: RXF 393
UACC-257 = test system: UACC-257
OVCAR-4 = test system: OVCAR-4
HL-60 = test system: HL-60
SK-MEL-5 = test system: SK-MEL-5
EKVX = test system: EKVX
SK-OV-3 = test system: SK-OV-3
RPMI-8226 = test system: RPMI-8226
MOLT-4 = test system: MOLT-4
Hs-578T = test system: Hs-578T
A549 = test system: A549
MCF7 = test system: MCF7
BT-549 = test system: BT-549
SNB-19 = test system: SNB-19
NCI/ADR-RES = test system: NCI/ADR-RES
T47D = test system: T47D

Row | SMILES | GI50 (HCT-116) | GI50 (IGROV-1) | GI50 (KM12) | GI50 (UACC-62) | GI50 (RXF 393) | GI50 (UACC-257) | GI50 (OVCAR-4) | GI50 (HL-60) | GI50 (SK-MEL-5) | GI50 (EKVX) | GI50 (SK-OV-3) | GI50 (RPMI-8226) | GI50 (MOLT-4) | GI50 (Hs-578T) | GI50 (A549) | GI50 (MCF7) | GI50 (BT-549) | GI50 (SNB-19) | GI50 (NCI/ADR-RES) | GI50 (T47D)
1 | c1cc(CSSCc2ccncc2)ccn1 | 14.1 µM (inactive) | 30.5 µM (inactive) | 29.6 µM (inactive) | 24.9 µM (inactive) | 23.6 µM (inactive) | 15.9 µM (inactive) | > 74.3 µM (inactive) | 13.7 µM (inactive) | 17.7 µM (inactive) | 54.8 µM (inactive) | 23.1 µM (inactive) | 9.18 µM (inactive) | 3.21 µM (inactive) | 29.2 µM (inactive) | 27.3 µM (inactive) | 32.8 µM (inactive) | 51.6 µM (inactive) | 34 µM (inactive) | 30.5 µM (inactive) | > 67.9 µM (inactive)
2 | O=C(O)CCCSc1nc2ccccc2s1 | > 100 µM (inactive) | > 100 µM (inactive) | > 100 µM (inactive) | > 100 µM (inactive) | > 100 µM (inactive) | > 100 µM (inactive) | > 100 µM (inactive) | > 100 µM (inactive) | > 100 µM (inactive) | > 100 µM (inactive) | > 100 µM (inactive) | > 100 µM (inactive) | > 100 µM (inactive) | > 100 µM (inactive) | > 100 µM (inactive) | > 100 µM (inactive) | > 100 µM (inactive) | > 100 µM (inactive) | > 100 µM (inactive) | > 100 µM (inactive)
3 | CCCCCC(=O)Nc1[nH]nnc1C(N)=O | > 100 µM (inactive) | > 100 µM (inactive) | > 100 µM (inactive) | > 100 µM (inactive) | > 100 µM (inactive) | > 100 µM (inactive) | > 100 µM (inactive) | > 100 µM (inactive) | > 100 µM (inactive) | > 100 µM (inactive) | > 100 µM (inactive) | > 100 µM (inactive) | > 100 µM (inactive) | > 100 µM (inactive) | > 100 µM (inactive) | > 100 µM (inactive) | > 100 µM (inactive) | > 100 µM (inactive) | > 100 µM (inactive) | > 100 µM (inactive)
4 | CCOC(=O)CC[C@@H](NC(=O)c1ccc(NCc2ccc3nc(OC)c(OC)nc3c2)cc1)C(=O)OCC | > 100 µM (inactive) | 22.5 µM (inactive) | > 100 µM (inactive) | 15.5 µM (inactive) | 25.5 µM (inactive) | 15.7 µM (inactive) | 38.9 µM (inactive) | 14.8 µM (inactive) | 13.6 µM (inactive) | > 78.3 µM (inactive) | > 100 µM (inactive) | > 94.8 µM (inactive) | 16.6 µM (inactive) | > 29.9 µM (inactive) | > 100 µM (inactive) | 25.5 µM (inactive) | > 67.3 µM (inactive) | > 100 µM (inactive) | > 100 µM (inactive) | 19.1 µM (inactive)
5 | Fc1ccccc1/N=c1\oc2ccc(Br)cc2cc1-c1nc2ccccc2[nH]1 | 8.61 µM (inactive) | 8.95 µM (inactive) | > 20.7 µM (inactive) | 12.8 µM (inactive) | 7.64 µM (inactive) | > 19.8 µM (inactive) | 5.96 µM (inactive) | > 100 µM (inactive) | 8.49 µM (inactive) | 9.29 µM (inactive) | 10.7 µM (inactive) | 28 µM (inactive) | > 30.8 µM (inactive) | 0.485 µM (active) | 7.01 µM (inactive) | 14.8 µM (inactive) | 7.93 µM (inactive) | 4.26 µM (inactive) | 10 µM (inactive) | 38.3 µM (inactive)
6 | CC1(c2cccc(C(F)(F)F)c2)CC(c2cccc(C(F)(F)F)c2)=C(C#N)C(=C(C#N)C#N)N1 (stereo not given) | 15.2 µM (inactive) | 16.6 µM (inactive) | 16.5 µM (inactive) | 16.7 µM (inactive) | 16.8 µM (inactive) | 15.9 µM (inactive) | 16 µM (inactive) | 15.5 µM (inactive) | 15.2 µM (inactive) | 17.9 µM (inactive) | 16.1 µM (inactive) | 16.4 µM (inactive) | 19.2 µM (inactive) | 17.3 µM (inactive) | 19.5 µM (inactive) | 16.7 µM (inactive) | 18.7 µM (inactive) | 19.4 µM (inactive) | 19.5 µM (inactive) | 17 µM (inactive)
7 | O=C(Nc1nnc(-c2ccc(Cl)cc2)o1)C(SC(=S)N1CCCCC1)c1ccccc1 (stereo not given) | 12.7 µM (inactive) | 9.38 µM (inactive) | 24.8 µM (inactive) | 14.2 µM (inactive) | 24.8 µM (inactive) | 21.7 µM (inactive) | 22 µM (inactive) | 8.59 µM (inactive) | 15.7 µM (inactive) | 20.7 µM (inactive) | 32.3 µM (inactive) | 11.2 µM (inactive) | 1.31 µM (inactive) | 26.2 µM (inactive) | 16.4 µM (inactive) | 18.7 µM (inactive) | 17.6 µM (inactive) | 20.5 µM (inactive) | 4.84 µM (inactive) | 27.2 µM (inactive)
8 | CC(=O)c1cccc2c1CC1(C2)Cc2ccc3c(c2C1=O)CCC3 (stereo not given) | 27.7 µM (inactive) | 74 µM (inactive) | 29.6 µM (inactive) | 78.5 µM (inactive) | 33 µM (inactive) | 14.8 µM (inactive) | 29.5 µM (inactive) | 3.64 µM (inactive) | 14 µM (inactive) | 17.9 µM (inactive) | 83.6 µM (inactive) | 17.3 µM (inactive) | 25.3 µM (inactive) | 32.7 µM (inactive) | 23.3 µM (inactive) | 9.57 µM (inactive) | 82.2 µM (inactive) | > 100 µM (inactive) | 12.7 µM (inactive) | 29.1 µM (inactive)
9 | O=[N+]([O-])c1cccc2nc3ccccc3c(NCCC[N+]3([O-])CCOCC3)c12 | 0.0948 µM (active) | 0.15 µM (active) | 0.187 µM (active) | 0.154 µM (active) | 0.106 µM (active) | 0.351 µM (active) | 0.12 µM (active) | 0.245 µM (active) | 0.0782 µM (active) | 0.177 µM (active) | 0.281 µM (active) | 0.193 µM (active) | 0.0687 µM (active) | 0.433 µM (active) | 0.0959 µM (active) | 0.0548 µM (active) | 0.373 µM (active) | 0.28 µM (active) | 11.4 µM (inactive) | 0.171 µM (active)
10 | CC1CNC(c2ccc(COc3ccc(C4=NC(C)CN4)cc3)cc2)=N1 (stereo not given) | 39.1 µM (inactive) | > 100 µM (inactive) | 27.4 µM (inactive) | 26.2 µM (inactive) | 58.6 µM (inactive) | 16.9 µM (inactive) | > 100 µM (inactive) | > 100 µM (inactive) | 28.6 µM (inactive) | > 100 µM (inactive) | 73.1 µM (inactive) | 29.9 µM (inactive) | > 100 µM (inactive) | 22.9 µM (inactive) | 21.2 µM (inactive) | 18.3 µM (inactive) | > 100 µM (inactive) | 50.1 µM (inactive) | > 100 µM (inactive) | 15.5 µM (inactive)
11 | COCn1c2ccc(OC(C)=O)cc2c2c(=O)oc(C)nc21 | > 100 µM (inactive) | > 100 µM (inactive) | > 100 µM (inactive) | > 100 µM (inactive) | > 100 µM (inactive) | > 100 µM (inactive) | > 100 µM (inactive) | > 100 µM (inactive) | > 100 µM (inactive) | > 100 µM (inactive) | > 100 µM (inactive) | > 100 µM (inactive) | > 100 µM (inactive) | > 100 µM (inactive) | > 100 µM (inactive) | > 100 µM (inactive) | > 100 µM (inactive) | > 100 µM (inactive) | > 100 µM (inactive) | > 100 µM (inactive)
12 | COC(=O)[C@H](Cc1ccccc1)NC(=O)[C@H](Cc1ccccc1)NC(=O)CN1C(=O)[C@@H]2C3C=CC(C3)[C@@H]2C1=O | 16.6 µM (inactive) and 14.3 µM (inactive) | 16.5 µM (inactive) and 12.9 µM (inactive) | 20.7 µM (inactive) and 17.1 µM (inactive) | 16.4 µM (inactive) and 16.6 µM (inactive) | 20.5 µM (inactive) and 18.4 µM (inactive) | 17.6 µM (inactive) and 16.4 µM (inactive) | 16.1 µM (inactive) and 19 µM (inactive) | 11 µM (inactive) | 18.2 µM (inactive) and 15 µM (inactive) | 19.8 µM (inactive) and 18.7 µM (inactive) | 16.7 µM (inactive) | 21.6 µM (inactive) and 14.9 µM (inactive) | 3.32 µM (inactive) and 2.26 µM (inactive) | 19.1 µM (inactive) and 19.5 µM (inactive) | 22 µM (inactive) and 21.1 µM (inactive) | 18.5 µM (inactive) and 17.8 µM (inactive) | 16.6 µM (inactive) and 18.2 µM (inactive) | 21 µM (inactive) and 20.8 µM (inactive) | 33 µM (inactive) and 22.2 µM (inactive) | 21.9 µM (inactive) and 21.7 µM (inactive)
13 | O=CN1CCN(C(=O)c2ccco2)C1=S | 12.2 µM (inactive) | 9.38 µM (inactive) | 6.18 µM (inactive) | 8.04 µM (inactive) | 6.64 µM (inactive) | 12.1 µM (inactive) | 19.7 µM (inactive) | 3.46 µM (inactive) | 12.6 µM (inactive) | 17.6 µM (inactive) | 24.3 µM (inactive) | 2.24 µM (inactive) | 8.24 µM (inactive) | 22 µM (inactive) | 11.3 µM (inactive) | 2.7 µM (inactive) | 5.5 µM (inactive) | 22.1 µM (inactive) | 23.4 µM (inactive) | 4.07 µM (inactive)

— ChEMBL document CHEMBL1201862, “PubChem BioAssay data set” (2004)
